{
  "source": "paper PMC2699469",
  "about": "(PLoS Pathogens, 2009)",
  "note": "Peptide text beside a SMILES is read from it. * marks the point of attachment. Palmitoyl = CCCCCCCCCCCCCCCC(=O)*",
  "data": [
    {"tested_on": "HIV-1 ENV-mediated fusion of Jurkat HXBc2 (effector) with Jurkat E6-1 (target) cells", "experiment": "Cell-cell fusion inhibition assay (DiI/DiD lipophilic probes, flow cytometry)", "type": "cell-based", "details": "Jurkat E6-1 + Jurkat HXBc2 1:1, co-incubated 6 h, eight peptide concentrations, FACS, Hill-type fit; at least four independent experiments, ± standard deviation", "procedure": "The protocol utilizing Jurkat E6-1 and Jurkat HXBc2 cells for a cell-cell fusion assay was previously described. In short, Jurkat E6-1 and Jurkat HXBc2 cells were labeled with DiI and DiD lipophilic fluorescent probes, respectively. The two cell populations were co-incubated, in a ratio of 1∶1, for 6 h in the presence of eight different concentrations of the inhibitory peptides. Prior to measurements the cells were washed, spinned, dissolved in PBS, and put on ice. Cells co-incubated without the presence of peptides served as an optimal fusion reference. Unlabeled cells that were handled similarly served as an intrinsic fluorescence control. Cells labeled separately with DiI or DiD were used to adjust the optimal separation of fluorescent signals. Jurkat HXBc2 cells labeled with DiI were co-incubated with Jurkat HXBc2 cells labeled with DiD for a fusion background that was subtracted from the measurements of the experiment. The following alterations were applied to the original protocol: (i) 5 µL of a 1 mg/mL DiI or DiD solution in dimethylsulfoxide (DMSO) was added to 1 mL of 4×10^6 cells/mL Jurkat E6-1 or Jurkat HXBc2 cells, respectively. (ii) For each data point 150,000 events were collected. Measurements were performed on a FACSort machine, upgraded to a FACSCalibur cell analyzer (Becton Dickinson). […] For the fitting, we uploaded the X and Y values of the raw data (after subtracting the background) into a nonlinear least squares regression (curve fitter) program that provided the IC50 value (A of the equation), as well as the c value.", "units": {"IC50": "nM"}, "values": [
      {"compound": "CCCCCCCCCCCCCCCC(=O)N[C@@H](CO)C(=O)NCC(=O)N[C@H](C(=O)N[C@@H](CC(=O)O)C(=O)N[C@@H](CCC(N)=O)C(=O)N[C@@H](CCC(=O)O)C(=O)N[C@@H](CCC(N)=O)C(=O)N[C@@H](CC(N)=O)C(=O)N[C@@H](CC(N)=O)C(=O)N[C@@H](CC(C)C)C(=O)N[C@H](C(=O)N[C@@H](CCCNC(=N)N)C(=O)N[C@@H](CC(C)C)C(=O)N[C@H](C(=O)N[C@@H](CCC(=O)O)C(=O)N[C@@H](C)C(=O)N[C@@H](CCC(N)=O)C(=O)N[C@H](C(=O)N[C@@H](Cc1c[nH]cn1)C(=O)N[C@@H](CCC(=O)O)C(=O)N[C@@H](CC(C)C)C(=O)N[C@@H](CCC(N)=O)C(=O)N[C@@H](CC(C)C)C(=O)N[C@H](C(=O)N[C@@H](CCC(N)=O)C(=O)N[C@@H](Cc1c[nH]c2ccccc12)C(=O)N[C@@H](CCCCN)C(=O)N[C@H](C(=O)N[C@@H](CCCCN)C(=O)N[C@@H](CCC(N)=O)C(=O)N[C@@H](CC(C)C)C(=O)N[C@@H](CC(C)C)C(=O)N[C@@H](C)C(=O)N[C@@H](CCCNC(=N)N)C(=O)N[C@H](C(=O)N[C@@H](CC(C)C)C(=O)N[C@@H](CCCCN)C(N)=O)[C@@H](C)CC)[C@@H](C)CC)[C@@H](C)O)[C@@H](C)CC)[C@@H](C)CC)[C@@H](C)O)[C@@H](C)CC", "note": "[C16-N36 MUTe,g] (Palmitoyl-SGIDQEQNNLTRLIEAQIHELQLTQWKIKQLLARILK-NH2)", "IC50": "162 ± 4"},
      {"compound": "CCCCCCCCCCCCCCCC(=O)NCCCC[C@H](NC(=O)[C@H](CC(C)C)NC(=O)[C@@H](NC(=O)[C@H](CCCNC(=N)N)NC(=O)[C@H](C)NC(=O)[C@H](CC(C)C)NC(=O)[C@H](CC(C)C)NC(=O)[C@H](CCC(N)=O)NC(=O)[C@H](CCCCN)NC(=O)[C@@H](NC(=O)[C@H](CCCCN)NC(=O)[C@H](Cc1c[nH]c2ccccc12)NC(=O)[C@H](CCC(N)=O)NC(=O)[C@@H](NC(=O)[C@H](CC(C)C)NC(=O)[C@H](CCC(N)=O)NC(=O)[C@H](CC(C)C)NC(=O)[C@H](CCC(=O)O)NC(=O)[C@H](Cc1c[nH]cn1)NC(=O)[C@@H](NC(=O)[C@H](CCC(N)=O)NC(=O)[C@H](C)NC(=O)[C@H](CCC(=O)O)NC(=O)[C@@H](NC(=O)[C@H](CC(C)C)NC(=O)[C@H](CCCNC(=N)N)NC(=O)[C@@H](NC(=O)[C@H](CC(C)C)NC(=O)[C@H](CC(N)=O)NC(=O)[C@H](CC(N)=O)NC(=O)[C@H](CCC(N)=O)NC(=O)[C@H](CCC(=O)O)NC(=O)[C@H](CCC(N)=O)NC(=O)[C@H](CC(=O)O)NC(=O)[C@@H](NC(=O)CNC(=O)[C@@H](N)CO)[C@@H](C)CC)[C@@H](C)O)[C@@H](C)CC)[C@@H](C)CC)[C@@H](C)O)[C@@H](C)CC)[C@@H](C)CC)C(N)=O", "note": "[N36 MUTe,g-C16] (H-SGIDQEQNNLTRLIEAQIHELQLTQWKIKQLLARILK(Palmitoyl)-NH2)", "IC50": "8.8 ± 4"},
      {"compound": "H-SGIDQEQNNLTRLIEAQIHELQLTQWKIKQLLARILK-NH2 [N36 MUTe,g, reference compound]", "IC50": "936 ± 36"}
    ]}
  ]
}
